Data reported in a melting point compilation (Tetko et al.; mined from patent text by program, amines drawn as free bases though some values may be those of a salt).

Row | SMILES | melting point [°C]
1 | CCCOc1cc(CCCOc2c(CC(=O)O)cccc2OC)n(Cc2ccc3ccccc3n2)n1 | 97 to 98
2 | ClCc1coc(-c2ccsc2)n1 | 91 to 92
3 | COc1ccc(S(=O)(=O)C(CCCCc2ccccc2)C(=O)NO)cc1OC (stereo unspecified) | 180 to 188
4 | CC(O)=C(C#N)C(=O)Nc1ccc(Cl)cc1Cl | 143 to 144
5 | CCOC(=O)c1cnc2cc(C)nn2c1N(C)S(=O)(=O)c1ccc(Oc2ccncc2)cc1 | 139 to 144
6 | O=P(O)(O)C(F)P(=O)(O)O | 162 to 163
7 | CN(C)c1ccc(Cn2nnc(-c3ccc(OC(=O)C(C)(C)C)c(N(C)C)c3)n2)cc1 | 73 to 74
8 | CCOC(=O)N1C=CC(c2c(-c3ccccc3)nc3ccc(Cl)nn23)C=N1 (stereo unspecified) | 126 to 131
9 | O=C(Nc1cccc(C(=O)O)c1)OCc1ccccc1 | 218 to 219
10 | NCC1CCN(c2nccc(C(N)=O)n2)CC1 | 144 to 148
11 | CCCCn1c(=O)n(CCN2CCN(c3ccccc3OC)CC2)c(=O)c2sccc21 | 139 to 140
12 | O=C(N[C@H](Cc1cccc(OC(F)(F)C(F)F)c1)[C@@H](O)c1ccc(Oc2ccccc2)cc1)c1cccc2c1C=CCCC2 (racemic) | 95 to 96
13 | C=C(C)Cn1c(N)cc(=O)[nH]c1=O | 267 to 269
14 | Cn1c(=O)c2c(ncn2CC(=O)Nc2ccc(-n3nc(C(F)(F)F)cc3C3CC3)cc2)n(C)c1=O | 178 to 184
15 | CCCc1c(OCCCCCCc2cccc(OCCCCCC(=O)O)c2CCC(=O)O)ccc2c1OCCC2=O | 86 to 88
16 | CCCCCCc1nc(C(C)=O)c[nH]1 | 104 to 106
17 | CN1C(=O)CN=C(c2ccccc2F)c2c1ccc(N)c2Cl | 126
18 | C=C(c1ccc2cc(OC)ccc2c1)C(O)C(=O)OC (stereo unspecified) | 90.6 to 92.5
19 | CCOc1ccc(Nc2ncc(C(=O)O)c(=O)[nH]2)cc1OCC | 243 to 245
20 | Nc1c([N+](=O)[O-])cc(Br)c2c1CN(Cc1ccc(C(F)(F)F)cc1)CC2 | 119 to 120
21 | C#CCN(C(CCn1c(=O)[nH]c(C)c(C)c1=O)C(=O)NO)S(=O)(=O)c1ccc(Oc2ccccc2)cc1 (stereo unspecified) | 180 to 181
22 | O=C(Nc1cc(-c2nc(Cc3ccccc3)c[nH]2)ccn1)c1ccccc1 | 110 to 112
23 | CC(=O)Nc1c(C(=O)C2CCCC(C)C2)[nH]c2cc(Cl)ccc12 (stereo unspecified) | 202 to 203

Row | SMILES | melting point [°C]
24 | CC(CCc1cccc(OCCC(NC(=O)OCc2ccccc2)C(=O)O)c1)=NNC=NN (stereo unspecified) | 95 to 100
25 | O=C(O)C=CC(=O)c1ccccc1O | 172 to 173
26 | Cc1c(Br)sc2cc(C(=O)CBr)ccc12 | 126 to 128
27 | COc1ccc(CCCOc2c(C)cc(-c3noc(C)n3)cc2C)cn1 | 71 to 73
28 | C=CCN(CC=C)CC1Oc2c(cc(C)c3[nH]c(=O)ccc23)C1CF (stereo unspecified) | 68 to 71
29 | NC1=NC(c2ccccc2)(c2cccc(Cc3ccc(F)cc3)c2)C2=NCCCN12 (stereo unspecified) | 152
30 | COc1cccc(N(CCN2CCC(C(=O)c3ccc(F)cc3)CC2)C(=O)c2ccc([N+](=O)[O-])cc2)c1 | 133 to 135
31 | COc1cccc(N2CCN(c3cc4c(cc3F)ncc3c4c(=O)c(C(=O)O)cn3C)CC2C)c1 (stereo unspecified) | 285
32 | CSc1ccccc1C(=N)N1CCN(CCc2cc3c(cc2Cl)NC(=O)C3)CC1 | 103 to 106
33 | O=C(O)Cc1ccc(N2CC3=C(CC=CC3)C2=O)cc1 | 198 to 200
34 | COc1ccc2c(c1)C(=O)c1sc(-c3ccccc3)nc1C2=O | > 260
35 | CN(C)c1ccc(S(N)(=O)=O)cn1 | 133 to 138
36 | CCC(CC)c1ccc(Cl)c2nc(Nc3cnc(OC)cc3C)n(CCCCO)c12 | 146 to 147
37 | O=C1Cc2cc(Cl)cc(Oc3ccccc3Cl)c2N1 | 196 to 198
38 | CCc1c(C(=O)OC(C)C)ncc2[nH]c3ccc(NC(C)=S)cc3c12 | 158 to 160
39 | CC1CC(=O)NN=C1c1ccc2c(c1)CCN2 (stereo unspecified) | 187 to 189
40 | CC1(C)OC(=O)Nc2ccc(/C(=C/C(N)=O)c3ccccc3)cc21 | 219 to 220
41 | O=C(Nc1ccc2[nH]c(=O)[nH]c2c1)C(=O)N1CCC(Cc2ccccc2)CC1 | > 260
42 | O=C1OC2(CCN(C(=O)Nc3cnc(-c4cccc(O)c4)cn3)CC2)c2ccccc21 | 257 to 259
43 | Cc1cc2oc(=O)c(NC(=O)Nc3ccc(Cl)cc3)c(-c3ccccc3C)c2cc1C | 234 to 236
44 | N=C(Nc1ccc(CCNCc2ccccc2Cl)cc1)c1cccs1 | 81 to 82
45 | CCC(=O)NCc1ccc(CN2CCN(c3ncccn3)CC2)cc1 | 103 to 105
46 | CSc1ncccc1NC(=O)CCCCCCCCSc1nc2ccccc2s1 | 107 to 108

The remaining lines, values ahead:

Row | melting point [°C] | SMILES
47 | 110 to 112 | CS(=O)(=O)N=C(NCCSCc1ccco1)Oc1ccccc1O
48 | 120 | CNC(=O)c1ccc(F)c2c1CC(N(CCCc1c[nH]c3ccc(F)cc13)CC1CC1)CO2 (stereo unspecified)
49 | 230 | CN(C)CCc1c(C(=O)O)[nH]c2ccc(C[C@H]3COC(=O)N3)cc12
50 | 160 to 161 | CC(C)CCCC(C)C1CCC2C3=CCC4C(C)(C)C(OC(=O)c5ccccc5)CCC4(C)C3CCC21C (stereo unspecified)
51 | 114 to 116 | COc1ccc2nc(C)n(-c3ccccc3)c2n1
52 | 70 to 72 | CCOC(=O)COc1ccc(CCC(=O)OC)cc1[N+](=O)[O-]
53 | 166 to 168 | Cc1c(C)c(N2C(=O)c3ccccc3C2=O)c(C)c2c1OC(C)(C)C2
54 | 55 | Cc1cc(C(=O)CCc2cc(-c3ccc(C(F)(F)F)cc3)nn2Cc2ccccc2)ccc1OC(C)(C)C(=O)O
55 | 192 | CCCC(CC(=O)Nc1cc(C(N)=O)ccc1C(C)(C)C)c1ccc(OC)cc1OC (stereo unspecified)
56 | 119 to 120 | CCOC(=O)C(CC)Cc1ccc(NC(=O)c2ccc(Cl)cc2)cc1 (stereo unspecified)
57 | 63 to 67 | COC(=O)/C=C/c1cc(Br)cs1
58 | 204 to 205 | COc1ccc2[nH]c(C(N)=O)cc2c1
59 | 84 | CCCCCC[C@H](C)Oc1ccc(-c2ccc(OC(=O)c3ccccc3)cc2)cc1
60 | 78 to 79 | O=C(O)CCCCNC(=O)C(CS)Cc1ccccc1 (stereo unspecified)
61 | 218 to 219 | CN(C)C(=O)c1nc(-c2ccccc2)nc2[nH]c3ccccc3c12
62 | 156 to 158 | COc1nc(C)cnc1N(C(=O)OCC(C)C)S(=O)(=O)c1cccnc1-c1ccc(I)cc1
63 | 209 to 210 | COc1ccc(Oc2cccc3ncnc(NC(=O)Nc4cccc(OC)c4)c23)cc1
64 | 246 to 250 | COc1cccc(Cc2ccc3[nH]c4cnn(C)c4c(=O)c3c2)c1
65 | 88 to 90 | CCOC(=O)CCC(C#N)(c1cccc(F)c1)N1CCOCC1 (stereo unspecified)
66 | 143 to 144 | Cc1cc(-c2cc(C(=O)O)c(=O)n(CC=Cc3ccccc3)n2)ccc1F
67 | 69 | CC(C)(C)OC(=O)C(CNC(=O)c1ccc(O)cc1)NC(=O)OCc1ccccc1 (stereo unspecified)
68 | 272 to 275 | CC(=O)OC1CCc2c(C3=C(c4cn(C)c5ccccc45)C(=O)OC3=O)c3ccccc3n2C1 (stereo unspecified)
69 | 130 to 135 | Nc1nc(N)c(N)c(OCc2ccccc2)n1
70 | 207 to 208 | Cc1c(C(=O)O)ccc2c1CCCO2
71 | 93 | CCOC(=O)c1cc(CCc2cc(OC)ccc2OC)ccc1NC(C)=O
